In ChEMBL document CHEMBL6115028, “An Amazing 30-Year Journey around the DABO Family: A Medicinal Chemistry Lesson on a Versatile Class of Non-nucleoside HIV-1 Reverse Transcriptase Inhibitors” (J Med Chem, 2025):
In brackets after ≈: the same amount, converted by molar mass.

Tests used:
A-375 [1] = assay: Inhibition of cell proliferation in human A-375 cells assessed as alive cells at 10 uM measured for 96 hrs relative to control; format: functional
A-375 [2] = assay: Inhibition of cell proliferation in human A-375 cells assessed as alive cells at 2.5 uM measured for 96 hrs relative to control; format: functional
A-375 [3] = assay: Inhibition of cell proliferation in human A-375 cells assessed as alive cells at 5 uM measured for 96 hrs relative to control; format: functional
A-375 [4] = assay: Inhibition of cell proliferation in human A-375 cells assessed as alive cells at 25 uM measured for 96 hrs relative to control; format: functional
Staphylococcus aureus = assay: Antibacterial activity against Staphylococcus aureus ATCC 6538 assessed as reduction in bacterial growth incubated for 24 to 48 hrs by serial dilution method; format: functional; conditions: time 24-48 hrs
Bacillus subtilis = assay: Antibacterial activity against Bacillus subtilis NRRL B-1481 assessed as reduction in bacterial growth incubated for 24 to 48 hrs by serial dilution method; format: functional; conditions: time 24-48 hrs
Micrococcus luteus = assay: Antibacterial activity against Micrococcus luteus ATCC 2188 assessed as reduction in bacterial growth incubated for 24 to 48 hrs by serial dilution method; format: functional; conditions: time 24-48 hrs
Escherichia coli = assay: Antibacterial activity against Escherichia coli ATCC 25922 assessed as reduction in bacterial growth incubated for 24 to 48 hrs by serial dilution method; format: functional; conditions: time 24-48 hrs
Pseudomonas aeruginosa = assay: Antibacterial activity against Pseudomonas aeruginosa ATCC 27853 assessed as reduction in bacterial growth incubated for 24 to 48 hrs by serial dilution method; format: functional; conditions: time 24-48 hrs
Influenza A virus [5] = assay: Antiviral activity against Influenza A virus A/H1N1 infected in MDCK cells reduction in virus induced cytopathic effect measured after 3 days by CPE assay; format: functional, organism-based; conditions: 72 h
[6] = Cytotoxicity against dog MDCK cells assessed as reduction in cell viability measured for 3 days by MTT assay; format: toxicity, cell-based, Canis lupus familiaris; conditions: time 3 day
Influenza A virus [7] = assay: Antiviral activity against Influenza A virus A/H1N1 infected in dog MDCK cells reduction in viral replication incubated for 3 days by MTS assay; format: functional, organism-based; conditions: 72 h
Influenza A virus [8] = assay: Antiviral activity against Influenza A virus A/H2N2 infected in dog MDCK cells reduction in virus induced cytopathic effect measured after 3 days by CPE assay; format: functional, organism-based; conditions: 72 h
Influenza A virus [9] = assay: Antiviral activity against Influenza A virus A/H2N2 infected in dog MDCK cells reduction in viral replication incubated for 3 days by MTS assay; format: functional, organism-based; conditions: 72 h
Influenza B virus [10] = assay: Antiviral activity against Influenza B virus infected in dog MDCK cells assessed as reduction in cytopathic effect measured after 3 days by CPE assay; format: functional, organism-based; conditions: 72 h
Influenza B virus [11] = assay: Antiviral activity against Influenza B virus infected in dog MDCK cells assessed as reduction in viral replication incubated for 3 days by MTS assay; format: functional, organism-based; conditions: 72 h
HOP-92 = assay: Growth inhibition of human HOP-92 cells at 10 uM relative to control; format: functional; conditions: read-out: GI
[12] = Inhibition of Hepatitis C virus NS5B RNA dependent RNA polymerase; set-up: species or system Hepacivirus hominis
[13] = Cytotoxicity against African green monkey Vero cells assessed as reduction in cell viability measured after 96 hrs by MTT assay; format: toxicity, cell-based; conditions: chlorocebus sabaeus
Zika virus = assay: Antiviral activity against Zika virus infected in Vero cells assessed as reduction in viral DNA replication; format: functional, organism-based
[14] = Inhibition of Zika virus NS5 RNA-directed RNA polymerase NS5
[15] = Cytotoxicity against African green monkey Vero cells assessed as reduction in cell growth measured after 96 hrs by MTT assay; format: toxicity, cell-based; conditions: chlorocebus sabaeus
A-375 [16] = assay: Inhibition of cell proliferation in human A-375 cells assessed as alive cells at 50 uM measured for 96 hrs relative to control; format: functional
A-375 [17] = assay: Inhibition of cell proliferation in human A-375 cells assessed as alive cells at 100 uM measured for 96 hrs relative to control; format: functional
Hepatitis C virus = assay: Antiviral activity against Hepatitis C virus infected in human Huh7.5 cells assessed as reduction in viral replication; format: functional, organism-based, Hepacivirus hominis
Huh-7 = assay: Cytotoxicity against human Huh-7 cells assessed as reduction in cell growth; format: functional
MOLT-4 = assay: Growth inhibition of human MOLT-4 cells at 10 uM relative to control; format: functional; conditions: read-out: GI

CCC(C)Sc1nc(C(CC)c2c(F)cccc2F)c(C)c(=O)[nH]1 (stereo not drawn)
inhibition at 10 µM (A-375 [1]): 12% | inhibition at 2.5 µM (A-375 [2]): 70% | inhibition at 5 µM (A-375 [3]): 30% | inhibition at 25 µM (A-375 [4]): 5%

COc1cc(-c2nc(SC)[nH]c(=O)c2C#N)ccc1OCc1ccccc1
MIC (Staphylococcus aureus): 12.5 µg/mL (≈ 32.9 µM) | MIC (Bacillus subtilis): 6.25 µg/mL (≈ 16.5 µM) | MIC (Micrococcus luteus): 12.5 µM (≈ 4.74 µg/mL) | MIC (Escherichia coli): 12.5 µg/mL (≈ 32.9 µM) | MIC (Pseudomonas aeruginosa): 12.5 µg/mL (≈ 32.9 µM)

COc1ccc(NC(=O)CSc2nc(Cc3cccc4ccccc34)c(C)c(=O)[nH]2)cc1
EC50 (Influenza A virus [5]): 9 µM | CC50 at 72 h [6]: > 224 µM | EC50 (Influenza A virus [7]): 9 µM | EC50 (Influenza A virus [8]): 26 µM | EC50 (Influenza A virus [9]): 9.7 µM | EC50 (Influenza B virus [10]): > 45 µM | EC50 (Influenza B virus [11]): > 22 µM

N#Cc1c(-c2c(Cl)cccc2Cl)nc(SCC(=O)c2ccc(Br)cc2)[nH]c1=O
inhibition of growth at 10 µM (HOP-92): 41%

CCc1c(C2CCCCC2)nc(SCC(=O)Nc2cc(F)cc(F)c2)[nH]c1=O
IC50 [12]: 0.102 µM | CC50 at 96 h [13]: > 10 µM | EC50 (Zika virus): 7.65 µM | IC50 [14]: 11.4 µM | CC50 at 96 h [15]: > 200 µM

CCC(C)Sc1nc(C(C)c2c(F)cccc2F)nc(=O)[nH]1 (stereo not drawn)
inhibition at 50 µM (A-375 [16]): 62% | inhibition at 100 µM (A-375 [17]): 14%

CCc1c(-c2ccc(C(C)C)cc2)nc(Sc2ccccc2Br)[nH]c1=O
IC50 [12]: 3.8 µM | EC50 (Hepatitis C virus): 32 µM | CC50 (Huh-7): > 250 µM

CCc1ccc(-c2nc(SCC(=O)c3ccc(Br)cc3)[nH]c(=O)c2C#N)s1
inhibition of growth at 10 µM (MOLT-4): 42.4%
